Molecular target: T1, SHP2 protein (Homo sapiens, UniProt Q06124)
T1 sequence (Q06124 1-593): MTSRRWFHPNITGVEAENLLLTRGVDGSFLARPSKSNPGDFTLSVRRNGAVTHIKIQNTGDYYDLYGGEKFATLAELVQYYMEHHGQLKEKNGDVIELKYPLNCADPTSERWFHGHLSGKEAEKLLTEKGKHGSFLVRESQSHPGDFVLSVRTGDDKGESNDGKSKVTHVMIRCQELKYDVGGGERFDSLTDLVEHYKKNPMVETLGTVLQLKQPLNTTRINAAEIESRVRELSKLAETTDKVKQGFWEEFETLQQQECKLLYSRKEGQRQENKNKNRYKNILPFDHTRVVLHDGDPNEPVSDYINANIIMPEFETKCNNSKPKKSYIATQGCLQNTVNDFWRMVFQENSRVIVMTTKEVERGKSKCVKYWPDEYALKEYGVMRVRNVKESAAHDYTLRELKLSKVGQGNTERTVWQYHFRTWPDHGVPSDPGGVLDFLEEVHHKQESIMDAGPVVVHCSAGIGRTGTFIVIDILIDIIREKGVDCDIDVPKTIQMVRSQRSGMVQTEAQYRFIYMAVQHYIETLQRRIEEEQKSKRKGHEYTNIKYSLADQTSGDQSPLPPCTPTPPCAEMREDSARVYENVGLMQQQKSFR
Assay: Measurement of SHP2 protein degradation in KYSE-520 cells (western blotting)
Format: cell-based
Parameters: endogenous in cells
Conditions: 24 hours
Method: Experimental Example 1: Measurement of SHP2 Protein Degradation in KYSE-520 Cells
KYSE-520 cells were treated with the synthesized Example compound, and the amount of SHP2 protein present in the cells was measured using western blotting detection. The protocol of the experiment conducted using KYSE-520 cells was as follows:
[Culture] KYSE-520 cells resuspended in RPMI1640 MEDIUM (Hyclone, SH30027.01) containing 5% FBS (Hyclone, SV30207.02) and 1% Penicillin-streptomycin (Welgene, LS 202-02) were seeded at a density of 2.5×10^5/well in a 6-well plate in an amount of 2 ml each and incubated for 2 days.
[Compound treatment] […] After 24 hours, cells were harvested. For the negative control group, DMSO diluted 1/10 to the media (3 mL DMSO+27 mL media) was added.
[Cell Lysis and Protein Quantification] Lysis buffer was prepared as follows: […] of RIPA buffer (Biosesang, RC2038-050-00)+0.5 mM PMSF (SIGMA, P7626)+1× Protease/Phosphatase Inhibitor (Cell signaling, 5872S) per well was added and placed on ice for 30 minutes (vortexing at 0 and 30 minutes, respectively). After sonication process (10 seconds pulse, 30 seconds rest, 5 cycles, 70% amplification), centrifugation (15000 g, 15 min, 4° C.) was performed, and then only the supernatant was taken and transferred to a new microtube. The sample was diluted ¼ with RIPA buffer in a 96-well plate, and mixed with A:B=50:1 of the BCA Protein Assay Kit (iNtRON, 21071). […] each of the mixture was left at 37° C. for 30 minutes, and cooled for 10 minutes. Then, absorbance was measured at 562 nm with the SYNERGY H1 microplate reader from BioTek. After making a sample by quantifying the protein with the measured value, boiling was performed at 70° C. for 10 minutes. At this time, the sample buffer used was a mixture of NuPAGE or Bolt 4× sample buffer (Invitrogen) and each 10× sample reducing agent according to the gel to be used, and RIPA buffer was used for protein dilution.
[Western blotting detection method] The same amount of sample was loaded on NuPAGE or Bolt Bis-tris 4-12% gradient gel and run (200 V, 35 minutes). It was transferred to 0.2 mm NC membrane with Trans-blot Turbo (BIO-RAD) (1.3 A constant, 25 V limit, 15 minutes). Blocking was performed at room temperature for 1 hour with Skim milk or Intercept Blocking Buffer (LI-COR, 927-60001):0.1% TBST=1:1. Anti SHPTP2 Mouse (1:500 in 5% Skim milk/TBST, size: 70 kDa, Santacruz sc-7384) was incubated overnight at 4° C., and Anti GAPDH Rabbit (1:2,000 in 5% BSA/0.2% TBST, size: 37 kDa, CST #2118) was incubated at room temperature for 1 hour 30 minutes or 3 hours. It was washed 3 times for 5 minutes each with 0.2% TBST washing buffer. Secondary antibody Anti-Rabbit IgG (1:5,000 in 5% Skim milk/0.2% TBST, CST), and IRDye® 680RD Goat anti-Rabbit IgG Secondary Antibody (1:10,000 in 5% BSA/0.2% TBST, LI-COR 926-68071) were incubated for 45 minutes on a rocker at room temperature. It was washed 5 times for 5 minutes each with 0.2% TBST washing buffer and detected with LI-COR's Odyssey. At this time, SHPTP2 was detected using SuperSignal West Pico PLUS Chemiluminescent Substrate, and house-keeping genes were also detected.
In the results of Table 4 below, Compounds 1-7, 13-19, and 21-26 are results in KYSE-520 cells, and the others are results in MV-4-11 cells.

SMILES | SHP2 degradation (%) 10 nM | SHP2 degradation (%) 100 nM | SHP2 degradation (%) 1000 nM
Cc1ncsc1-c1ccc(CNC(=O)[C@@H]2C[C@@H](O)CN2C(=O)[C@@H](NC(=O)C2(F)CC2)C(C)(C)C)c(OCCCN2CCC(CCC(=O)Nc3cccc(Sc4cnc(N5CCC(C)(CN)CC5)cn4)c3Cl)CC2)c1 [Example 14, (2S,4R)—N-(2-(3-(4-(3-((3-((5-(4-(aminomethyl)-4-methylpiperidin-1-yl)pyrazin-2-yl)thio)-2-chlorophenyl)amino)-3-oxopropyl)piperidin-1-yl)propoxy)-4-(4-methylthiazol-5-yl)benzyl)-1-((S)-2-(1-fluorocyclopropane-1-carboxamido)-3,3-dimethylbutanoyl)-4-hydroxypyrrolidine-2-carboxamide] | 14.2% | 60.1% | 69.1%
Cc1ncsc1-c1ccc(CNC(=O)[C@@H]2C[C@@H](O)CN2C(=O)[C@@H](NC(=O)C2(F)CC2)C(C)(C)C)c(OCCCC(=O)N2CCC(CCC(=O)Nc3cccc(Sc4cnc(N5CCC(C)(CN)CC5)cn4)c3Cl)CC2)c1 [Example 24, (2S,4R)—N-(2-(4-(4-(3-((3-((5-(4-(aminomethyl)-4-methylpiperidin-1-yl)pyrazin-2-yl)thio)-2-chlorophenyl)amino)-3-oxopropyl)piperidin-1-yl)-4-oxobutoxy)-4-(4-methylthiazol-5-yl)benzyl)-1-((S)-2-(1-fluorocyclopropane-1-carboxamido)-3,3-dimethylbutanoyl)-4-hydroxypyrrolidine-2-carboxamide] | 15.1% | 52.1% | 74.7%
Cc1ncsc1-c1ccc(CNC(=O)[C@@H]2C[C@@H](O)CN2C(=O)[C@@H](NC(=O)C2(F)CC2)C(C)(C)C)c(OCCCN2CCC(C(=O)Nc3cccc(Sc4cnc(N5CCC(C)(CN)CC5)cn4)c3Cl)CC2)c1 [Example 1, N-(3-((5-(4-(aminomethyl)-4-methylpiperidin-1-yl)pyrazin-2-yl)thio)-2-chlorophenyl)-1-(3-(2-(((2S,4R)-1-((S)-2-(1-fluorocyclopropane-1-carboxamido)-3,3-dimethylbutanoyl)-4-hydroxypyrrolidine-2-carboxamido)methyl)-5-(4-methylthiazol-5-yl)phenoxy)propyl)piperidine-4-carboxamide] | 28.9% | 64.5% | 74.5%

Results, then the compound that gave them:

SHP2 degradation (%) 10 nM | SHP2 degradation (%) 100 nM | SHP2 degradation (%) 1000 nM | SMILES
4.1% | 60.7% | 90.7% | Cc1ncsc1-c1ccc(CNC(=O)[C@@H]2C[C@@H](O)CN2C(=O)[C@@H](NC(=O)C2(F)CC2)C(C)(C)C)c(OCCCCCCCCN2CCC(C(=O)Nc3cccc(Sc4cnc(N5CCC(C)(CN)CC5)cn4)c3Cl)CC2)c1 [Example 4, N-(3-((5-(4-(aminomethyl)-4-methylpiperidin-1-yl)pyrazin-2-yl)thio)-2-chlorophenyl)-1-(8-(2-(((2S,4R)-1-((S)-2-(1-fluorocyclopropane-1-carboxamido)-3,3-dimethylbutanoyl)-4-hydroxypyrrolidine-2-carboxamido)methyl)-5-(4-methylthiazol-5-yl)phenoxy)octyl)piperidine-4-carboxamide]
−9.0% | 56.9% | 91.8% | Cc1ncsc1-c1ccc(CNC(=O)[C@@H]2C[C@@H](O)CN2C(=O)[C@@H](NC(=O)C2(F)CC2)C(C)(C)C)c(OCCCCCCN2CCC(CCCC(=O)Nc3cccc(Sc4cnc(N5CCC(C)(CN)CC5)cn4)c3Cl)CC2)c1 [Example 18, (2S,4R)—N-(2-((6-(4-(4-((3-((5-(4-(aminomethyl)-4-methylpiperidin-1-yl)pyrazin-2-yl)thio)-2-chlorophenyl)amino)-4-oxobutyl)piperidin-1-yl)hexyl)oxy)-4-(4-methylthiazol-5-yl)benzyl)-1-((S)-2-(1-fluorocyclopropane-1-carboxamido)-3,3-dimethylbutanoyl)-4-hydroxypyrrolidine-2-carboxamide]
11.7% | 51.7% | 66.6% | Cc1ncsc1-c1ccc(CNC(=O)[C@@H]2C[C@@H](O)CN2C(=O)[C@@H](NC(=O)C2(F)CC2)C(C)(C)C)c(OCCCC(=O)N2CCC(C(=O)Nc3cccc(Sc4cnc(N5CCC(C)(CN)CC5)cn4)c3Cl)CC2)c1 [Example 21, N-(3-((5-(4-(aminomethyl)-4-methylpiperidin-1-yl)pyrazin-2-yl)thio)-2-chlorophenyl)-1-(4-(2-(((2S,4R)-1-((S)-2-(1-fluorocyclopropane-1-carboxamido)-3,3-dimethylbutanoyl)-4-hydroxypyrrolidine-2-carboxamido)methyl)-5-(4-methylthiazol-5-yl)phenoxy)butanoyl)piperidine-4-carboxamide]

Reference: US20250230154A1, “COMPOUND HAVING SHP2 PROTEIN DEGRADING ACTIVITY, AND MEDICAL USES THEREOF” (UBIX THERAPEUTICS, INC., priority 2021, published 2025)
